Values quoted from earlier work as cited in patent US20230310465A1, “NANO LIPID CARRIER SYSTEM FOR IMPROVING PERMEATION OF ACTIVE INGREDIENTS” (LEIUTIS PHARMACEUTICALS LLP, priority 2020, published 2023).

Details: from Akynezo, healthy subjects

Tmax: about 5 hrs
SMILES: Cc1ccccc1-c1cc(N2CCN(C)CC2)ncc1N(C)C(=O)C(C)(C)c1cc(C(F)(F)F)cc(C(F)(F)F)c1 [Netupitant, 2-[3,5-bis(trifluoromethyl)phenyl]-N,2-dimethyl-N-[4-(2methylphenyl)-6-(4-methylpiperazin-1-yl)pyridin-3-yl]propenamide]
